Measurements: patent publication US6936602B1, “Benzazepine derivatives, process for the preparation of the same and uses thereof” (Takeda Chemical Industries, Ltd., priority 1999, dated 2005)

Legend:
[1] = target: T1, human CCR5 (Homo sapiens, UniProt P51681); experiment: Evaluation of test compounds based on CCR5 antagonistic activity: inhibition of [125I]-RANTES binding to CCR5/CHO cells; details: Test Compound 1 μM, 100 pM [125I]-RANTES, room temperature for 40 minutes, read-out: Inhibitory Rate (%)
T1 construct: expressed in transfected cells
Method: Cloning of CCR5 gene was carried out by a PCR method from human spleen cDNA. With using 0.5 ng of spleen cDNA (Toyobo, QUICK-Clone cDNA) as template, PCR was performed in DNA Thermal Cycler 480 (Perkin-Elmer) (reaction conditions: 30 cycles of 95° C. for 1 minute, 60° C. for 1 minute, and 75° C. for 5 minutes) by adding each 25 pmol of primers of a primer set, • SEQ ID NO.: 1 described in Test Example (1) of WO 99/32100 [length of sequence: 34; type of sequence: nucleic acid; strandedness: single; topology: straight; kind of sequence: other nucleic acid synthetic DNA, and • SEQ ID NO.: 2 described in Test Example (1) of WO 99/32100 [length of sequence: 34; type of sequence: nucleic acid; strandedness: single; topology: straight; kind of sequence: other nucleic acid synthetic DNA which were designed referring to nucleotide sequence of CCR5 gene reported by Samson et. al. (Biochemistry, 35(11), 3362-3367 (1996)) and by using TaKaRa EX Taq (Takara Shuzo). The resultant PCR product was subjected to agarose gel electrophoresis to collect about 1.0 kb DNA fragment, which was subjected to Original TA Cloning Kit (Funakoshi) to carry out cloning of CCR5 gene. (2) Preparation of Plasmid for Expression of Human CCR5
The plasmid obtained in the above (1) was digested with restriction enzymes XbaI (Takara Shuzo) and BamHI (Takara Shuzo) and subjected to agarose gel electrophoresis to collect about 1.0 kb DNA fragment.
The DNA fragment was mixed with plasmid pcDNA3.1 (Funakoshi) for expression in animal cells, said plasmid being digested with XbaI and BamHI, and they were ligated with DNA Ligation Kit Ver.2 (Takara Shuzo). The resulting plasmid was subjected to transformation of competent cell of E. coli JM109 (Takara Shuzo) to obtain plasmid pCKR5.
CHO-K1 cells were grown in 750 ml of tissue culture flask (Becton Dickinson) using Ham's F12 medium (Nihon Pharmaceutical) containing 10% fetal calf serum (Life Tech Oriental) and taken off with 0.5 g/L trypsin-0.2 g/L EDTA (Life Tech Oriental). The cells were washed with PBS (Life Tech Oriental), centrifuged (1000 rpm, 5 minutes), and suspended in PBS. With using Gene Pulser (Bio-Rad Laboratories), DNA was introduced into the cells under the conditions shown below. That is, to the cuvette of 0.4 cm gap were added 8×10^6 cells and 10 μg of plasmid pCKR5 for expression of human CCR5, and electroporation was carried out under 0.25 kV of voltage and 960 μF of capacitance. The cells were transferred into Ham's F12 medium containing 10% fetal calf serum, and cultivated for 24 hours. The cells were again taken off and centrifuged, and suspended in Ham's F12 medium containing 10% fetal calf serum and 500 μg/ml of geneticin (Life Tech Oriental). The suspension was diluted to give 10^4 cells/ml of the suspension, which was inoculated on a 96 well plate (Becton Dickinson) to give geneticin resistant cells.
The resulting geneticin resistant cells were cultivated in 96 well plate (Becton Dickinson), and cells expressing CCR5 were selected from the geneticin resistant cells. That is, in assay buffer (Ham's F12 medium containing 0.5% BSA and 20 mM HEPES (Wako Pure Chemical, pH7.2)) to which was added 200 pM of [^125I]-RANTES (Amersham) as a ligand, a binding reaction was carried out at room temperature for 46 minutes, and the buffer was washed with cooled PBS. To the buffer was added 50 μl/well of 1M NaOH, and the mixture was stirred. Radioactivity was determined with a y-counter to select CCR5/CHO cells which specifically bind to the ligand.
The CCR5/CHO cells were inoculated on 96 well microplate (5×10^4 cells/well) and cultivated for 24 hours. The medium was removed by means of suction, and to each well was added an assay buffer containing Test Compound (1 μM) and then 100 pM of [^125I]-RANTES (Amersham) as a ligand. A binding assay was carried out at room temperature for 40 minutes, and an assay buffer was removed by means of suction. […]

[2] = test system: HIV-1 BA-L; experiment: Inhibitory effect on HIV-1 infection to MAGI-CCR5 cell (β-galactosidase blue cell count); type: cell-based; details: 100 μl medium containing 1.6 μM of Test Compound + 100 μl medium containing 300 PFU of HIV-1 BA-L; MAGI-CCR5 cells; 37° C. for 2 days
Method: (5) Inhibitory Effect on HIV-1 Infection to MAGI-CCR5 Cell
The plasmid where β-galactosidase gene was ligated downstream of HIV-1 LTR was introduced into CD4 positive HeLa cell, to which human CCR5 was further introduced to obtain transformant MAGI-CCR5.
By using said transformant MAGI-CCR5, a degree of HIV-1 infection was calculated using β-galactosidase activity (blue color due to decomposition of 5-bromo-4-chloro-3-indolyl-β-D-galactopyranoside) as an index. Specifically, MAGI-CCR5 cells were suspended in DMEM medium containing 10% serum to prepare 5×10^4 cells/ml suspension. To each well of 96 well plate was inoculated 200 μl of the suspension, and the cells were cultivated at 37° C. overnight. The medium was removed by means of suction, and to the residue was added 100 μl of the above medium containing 1.6 μM of Test Compound and 100 μl of the above medium containing 300 PFU of HIV-1 BA-L cells. The cells were cultivated at 37° C. for 2 days. The medium was removed by means of suction. To the residue was added 200 μl of a cell fixative (PBS containing 1% formaldehyde and 0.2% glutaraldehyde), and the mixture was allowed to stand at room temperature for 5 minutes and washed twice with PBS. To the mixture was added 100 μl of staining solution (PBS containing […] and 0.4 mg/ml X-gal), and the mixture was allowed to stand at 37° C. for 50 minutes and washed twice with PBS. The number of blue cells was counted by a microscope and defined as the number of cells infected with HIV-1. According to this method, inhibition rate of HIV-1 infection was determined.

T1 sequence (P51681 whole entry): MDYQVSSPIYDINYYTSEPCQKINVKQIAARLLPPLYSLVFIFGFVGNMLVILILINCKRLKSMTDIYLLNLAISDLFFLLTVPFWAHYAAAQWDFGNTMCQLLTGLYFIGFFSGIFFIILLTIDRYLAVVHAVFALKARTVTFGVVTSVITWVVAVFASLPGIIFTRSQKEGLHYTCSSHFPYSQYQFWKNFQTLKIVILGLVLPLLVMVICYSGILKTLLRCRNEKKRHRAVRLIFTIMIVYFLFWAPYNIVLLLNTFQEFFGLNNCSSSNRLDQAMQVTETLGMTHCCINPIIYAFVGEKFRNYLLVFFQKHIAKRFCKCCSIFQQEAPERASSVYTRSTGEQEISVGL

| inhibition at 1 µM [1] [%] | melting point [°C] | SMILES | Inhibitation Rate (%) [2] [%] |
| --- | --- | --- | --- |
| 93 | 192 to 194 | CCOCCOc1ccc(-c2ccc3c(c2)C=C(C(=O)Nc2ccc(CN(C)C4CCOCC4)cc2)CCN3C=O)cc1 [Compound 1, 7-[4-(2-ethoxyethoxy)phenyl]-1-formyl-N-[4-[[N-methyl-N-(tetrahydro-2H-pyran-4-yl)amino]methyl]phenyl]-2,3-dihydro-1H-1-benzazepine-4-carboxamide] | 85 |
| 96 | 187 to 189 | CC(C)OCCOc1ccc(-c2ccc3c(c2)C=C(C(=O)Nc2ccc(CN(C)C4CCOCC4)cc2)CCN3C=O)cc1 [Compound 14, 1-formyl-N-[4-[[N-methyl-N-(tetrahydro-2H-pyran-4-yl)amino]methyl]phenyl]-7-[4-(2-propoxy)ethoxyphenyl]-2,3-dihydro-1H-1-benzazepine-4-carboxamide] | 91 |
| 96 | 114.5 to 116.5 | CCOCCOc1ccc(-c2ccc3c(c2)C=C(C(=O)Nc2ccc(CN(C)C4CCOCC4)cc2)CCN3CC)cc1 [Compound 16, 7-[4-(2-ethoxyethoxy)phenyl]-1-ethyl-N-[4-[[N-methyl-N-(tetrahydro-2H-pyran-4-yl)amino]methyl]phenyl]-2,3-dihydro-1H-1-benzazepine-4-carboxamide] | 94 |
| 99 | 106 to 108 | CCCOCCOc1ccc(-c2ccc3c(c2)C=C(C(=O)Nc2ccc(CN(C)C4CCOCC4)cc2)CCN3CC)cc1 [Compound 17, 1-ethyl-N-[4-[[N-methyl-N-(tetrahydro-2H-pyran-4-yl)amino]methyl]phenyl]-7-[4-(2-propoxyethoxy)phenyl)-2,3-dihydro-1H-1-benzazepine-4-carboxamide] | 94 |
